Experimental data published in patent publication US20250186450A1, “COMBINATION THERAPY COMPRISING DGK INHIBITORS and PD-1/PD-L1 INHIBITORS” (Incyte Corporation, priority 2023, published 2025).

Key:
DGKα = DGKα (Homo sapiens (Human), UniProt P23743); test: In vitro DGKα inhibition assay (ADP-Glo); format: biochemical; conditions: 0.1 nM DGKα, 50 μM ATP, 20 μM DLG
Method: (§1) The DGKα and DGKζ biochemical reactions were performed using His-tagged human recombinant enzymes (Signal Chem, DGKα, #D21-10BH; DGKζ, #D30-10H)) and DLG (Dilauroyl-sn-glycerol) lipid substrate (Signal Chem, #D430-59). ADP-Glo assay was performed using ADP-Glo™ kinase Assay kit (Promega, #V9104). The reactions were carried out in assay buffer containing 40 mM Tris, pH 7.5, 0.1% CHAPS, 0.1% Prionex, 40 mM NaCl, 5 mM MgCl2, 1 mM CaCl2, and 1 mM DTT. DGKα reactions contained 0.1 nM DGKα, 50 μM ATP, and 20 μM DLG. And DGKζ reactions contained 0.4 nM DGKζ, 30 μM ATP, and 20 μM DLG.
(§2) For compound inhibition studies, 40 nL test compound in DMSO was added to wells of white polystyrene plates in 384-well (Greiner, #784075) or 1536-well format (Greiner, #782075). Compounds were added with top concentration of 2 mM with 11 point, 3-fold dilution series. Enzyme solution (contains 2×DGK enzyme concentration in 1× assay buffer) was added to the plate in 2 μL/well volume, followed by 2 μL/well of substrate solution (contains 2× concentration of ATP and DLG substrate in 1× assay buffer). Plates were then centrifuged for 1 min at 1200 RPM and sealed or lidded. For 4 μL reaction volume, test compounds were therefore diluted 100× to final top concentration of 20 μM. After 90 minute incubation, reactions were quenched by addition of 2 μL/well Promega ADP-Glo Reagent, followed by centrifugation and lidding. After 60 min incubation, 2 μL/well Promega Kinase Detection Reagent was added, plates centrifuged, and incubated for 30 min. Plates were then read using Luminescence method on BMG PHERAstar FSX plate reader. Percent inhibition was calculated and IC50s were determined using 4-parameter fit in Genedata Screener. Labcyte Echo acoustic dispenser was used for compound addition, and Formulatrix Tempest liquid handler was used for all reagent dispenses.

DGKζ = DGKζ (Homo sapiens (Human), UniProt Q13574); test: In vitro DGKζ inhibition assay (ADP-Glo); format: biochemical; conditions: 0.4 nM DGKζ, 30 μM ATP, 20 μM DLG
Method: as §1, §2

Chain of DGKζ (Q13574 whole entry): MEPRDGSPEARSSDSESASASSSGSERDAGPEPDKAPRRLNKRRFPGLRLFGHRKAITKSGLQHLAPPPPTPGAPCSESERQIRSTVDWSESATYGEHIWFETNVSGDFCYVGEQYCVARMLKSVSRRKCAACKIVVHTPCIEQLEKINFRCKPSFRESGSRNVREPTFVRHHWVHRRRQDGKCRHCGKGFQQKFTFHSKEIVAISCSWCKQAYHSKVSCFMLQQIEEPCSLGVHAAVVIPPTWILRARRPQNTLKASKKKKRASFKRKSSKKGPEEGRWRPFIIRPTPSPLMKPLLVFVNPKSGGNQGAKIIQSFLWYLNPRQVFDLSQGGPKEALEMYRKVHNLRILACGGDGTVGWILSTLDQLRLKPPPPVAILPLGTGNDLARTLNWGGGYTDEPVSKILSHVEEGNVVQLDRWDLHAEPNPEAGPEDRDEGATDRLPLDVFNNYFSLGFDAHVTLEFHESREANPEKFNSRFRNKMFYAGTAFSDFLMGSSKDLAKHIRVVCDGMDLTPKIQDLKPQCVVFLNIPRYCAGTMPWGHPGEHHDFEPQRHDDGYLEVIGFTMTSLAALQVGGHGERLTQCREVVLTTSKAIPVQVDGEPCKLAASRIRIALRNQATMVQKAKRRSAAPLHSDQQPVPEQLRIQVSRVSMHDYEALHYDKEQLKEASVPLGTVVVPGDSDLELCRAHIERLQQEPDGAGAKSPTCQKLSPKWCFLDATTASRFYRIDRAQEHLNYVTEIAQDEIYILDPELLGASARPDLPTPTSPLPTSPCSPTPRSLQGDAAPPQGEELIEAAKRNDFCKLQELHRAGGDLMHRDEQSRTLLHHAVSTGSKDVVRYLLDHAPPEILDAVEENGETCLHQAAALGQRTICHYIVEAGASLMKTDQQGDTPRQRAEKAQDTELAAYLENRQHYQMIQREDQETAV
Chain of DGKα (P23743 whole entry): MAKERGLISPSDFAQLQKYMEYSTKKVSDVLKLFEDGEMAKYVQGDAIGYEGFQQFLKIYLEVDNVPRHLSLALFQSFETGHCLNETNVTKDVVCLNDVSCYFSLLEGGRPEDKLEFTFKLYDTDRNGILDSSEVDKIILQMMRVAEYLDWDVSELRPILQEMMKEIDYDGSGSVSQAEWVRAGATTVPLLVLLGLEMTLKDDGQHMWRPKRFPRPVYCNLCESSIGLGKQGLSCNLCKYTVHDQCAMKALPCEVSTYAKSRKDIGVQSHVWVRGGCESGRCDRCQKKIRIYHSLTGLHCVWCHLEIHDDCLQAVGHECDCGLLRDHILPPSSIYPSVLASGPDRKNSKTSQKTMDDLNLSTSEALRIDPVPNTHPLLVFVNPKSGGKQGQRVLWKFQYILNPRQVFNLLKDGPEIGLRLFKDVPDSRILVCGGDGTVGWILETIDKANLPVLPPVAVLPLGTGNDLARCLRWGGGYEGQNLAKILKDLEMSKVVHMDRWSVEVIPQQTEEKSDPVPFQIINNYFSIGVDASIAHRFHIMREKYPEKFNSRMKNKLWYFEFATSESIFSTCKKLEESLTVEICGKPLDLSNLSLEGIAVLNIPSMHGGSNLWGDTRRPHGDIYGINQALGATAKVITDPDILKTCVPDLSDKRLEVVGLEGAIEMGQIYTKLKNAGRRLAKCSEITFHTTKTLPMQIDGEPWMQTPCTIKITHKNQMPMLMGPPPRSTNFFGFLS

| Structure (SMILES) | IC50 (DGKα) | IC50 (DGKζ) |
| --- | --- | --- |
| Cc1nc2c(N3C[C@@H](C)N(C(c4ccc(F)c(Cl)c4)C4CC(F)(F)C4)C[C@@H]3C)nc3nncn3c2n1C[C@@H]1CCCO1 (single isomer, unassigned) [Example 3] | ≤ 20 nM | ≤ 20 nM |
| Cc1nc2c(N3C[C@@H](C)N(C(c4ccc(Cl)c(F)c4)C4CC(F)(F)C4)C[C@@H]3C)nc3nncn3c2n1C[C@@H]1CCCO1 (single isomer, unassigned) [Example 4] | ≤ 20 nM | ≤ 20 nM |
| C[C@@H]1CN(c2nc3nncn3c3c2ncn3C[C@@H]2CCCO2)[C@@H](C)CN1C(c1ccc(C(F)(F)F)cc1)C1CC(F)(F)C1 (single isomer, unassigned) [Example 6] | ≤ 20 nM | ≤ 20 nM |
| C[C@@H]1CN(c2nc3nncn3c3c2ncn3C[C@@H]2CCCO2)[C@@H](C)CN1C(c1ccc(Cl)cc1)[C@@H]1CC1(F)F (single isomer, unassigned) [Example 7] | ≤ 20 nM | ≤ 20 nM |
| C[C@@H]1CN(c2nc3nncn3c3c2ncn3C[C@@H]2CCCO2)[C@@H](C)CN1C(c1ccc(Cl)cc1)[C@H]1CC1(F)F (single isomer, unassigned) [Example 8] | ≤ 20 nM | ≤ 20 nM |
| Cc1nc2c(N3C[C@@H](C)N(C(c4ccc(Cl)cc4)[C@@H]4CC4(F)F)C[C@@H]3C)nc3nncn3c2n1C[C@@H]1CCCO1 (single isomer, unassigned) [Example 9] | ≤ 20 nM | ≤ 20 nM |
| CC(C)CC(c1ccc(Cl)cc1)N1C[C@H](C)N(c2nc3nncn3c3c2ncn3C[C@@H]2CCCO2)C[C@H]1C (single isomer, unassigned) [Example 10] | ≤ 20 nM | ≤ 20 nM |
| Cc1nc2c(N3C[C@@H](C)N(C(CC(C)C)c4ccc(Cl)c(F)c4)C[C@@H]3C)nc3nncn3c2n1C[C@@H]1CCCO1 (single isomer, unassigned) [Example 11] | ≤ 20 nM | ≤ 20 nM |
| Cc1nc2c(N3C[C@@H](C)N(C(c4ccc(C(F)(F)F)cc4)C4CC(F)(F)C4)C[C@@H]3C)cc3nncn3c2n1C[C@@H]1CCCO1 (single isomer, unassigned) [Example 17] | ≤ 20 nM | ≤ 20 nM |
| C[C@@H]1CN(c2cc3nncn3c3c2ncn3C[C@@H]2CCCO2)[C@@H](C)CN1C(c1ccc(Cl)cc1)[C@@H]1CC1(F)F (single isomer, unassigned) [Example 18] | ≤ 20 nM | 20 to 200 nM |
| CC[C@@H]1CN(c2cc3nncn3c3c2nc(C)n3C[C@@H]2CCCO2)[C@@H](C)CN1C(c1ccc(Cl)cc1)C1CC(F)(F)C1 (single isomer, unassigned) [Example 19] | ≤ 20 nM | ≤ 20 nM |
| C[C@@H]1CN(c2cc3nncn3c3c2ncn3C[C@@H]2CCCO2)[C@@H](C)CN1C(c1ccc(Cl)cc1)C1CC(F)(F)C1 (single isomer, unassigned) [Example 22] | ≤ 20 nM | ≤ 20 nM |
| Cc1nc2c(N3C[C@@H](C)N(C(c4ccc(Cl)cc4)C4CC(F)(F)C4)C[C@@H]3C)cc3nncn3c2n1C[C@@H]1CCCO1 (single isomer, unassigned) [Example 23] | ≤ 20 nM | ≤ 20 nM |
| Cc1nc2c(N3C[C@@H](C)N(C(c4ccc(Cl)cc4)c4ccc(Cl)cc4)C[C@@H]3C)nc3nncn3c2n1C[C@@H]1CCCO1 [Example 5, 4-((2S,5R)-4-(Bis(4-chlorophenyl)methyl)-2,5-dimethylpiperazin-1-yl)-2-methyl-1-(((S)-tetrahydrofuran-2-yl)methyl)-1H-[1,2,4]triazolo[3,4-b]purine] | ≤ 20 nM | ≤ 20 nM |
| C[C@@H]1CN(c2nc3nncn3c3c2ncn3C[C@@H]2CCCO2)[C@@H](C)CN1C(c1ccc(Cl)cc1)C1CC(F)(F)C1 (stereo partly drawn) [Example 12, 4-((2S,5R)-4-((4-Chlorophenyl)(3,3-difluorocyclobutyl)methyl)-2,5-dimethylpiperazin-1-yl)-1-(((S)-tetrahydrofuran-2-yl)methyl)-1H-[1,2,4]triazolo[3,4-b]purine] | ≤ 20 nM | ≤ 20 nM |
| CC[C@@H]1CN(c2nc3nncn3c3c2ncn3C[C@@H]2CCCO2)[C@@H](C)CN1C(c1ccc(Cl)cc1)C1CC(F)(F)C1 (stereo partly drawn) [Example 13, 4-((2S,5R)-4-((4-Chlorophenyl)(3,3-difluorocyclobutyl)methyl)-5-ethyl-2-methylpiperazin-1-yl)-1-(((S)-tetrahydrofuran-2-yl)methyl)-1H-[1,2,4]triazolo[3,4-b]purine] | ≤ 20 nM | ≤ 20 nM |
| Cc1nc2c(N3C[C@@H](C)N(Cc4ccc(C(F)(F)F)cc4F)C[C@@H]3C)nc3nncn3c2n1C[C@@H]1CCCO1 [Example 14, 4-((2S,5R)-4-(2-Fluoro-4-(trifluoromethyl)benzyl)-2,5-dimethylpiperazin-1-yl)-2-methyl-1-(((S)-tetrahydrofuran-2-yl)methyl)-1H-[1,2,4]triazolo[3,4-b]purine] | ≤ 20 nM | ≤ 20 nM |
